We go through one compound from patent USRE36744E, “Nasal administration of benzodiazepine hypnotics” (Ribogene, Inc., priority 1994, dated 2000).

Where “and” joins values, the source holds several entries; their conditions need not be identical. Identical values can stand only once. Like-named read-outs stand apart in the source and are kept apart here.

For one data set, the system named is Wistar rats. Nature of the data set: Oral versus nasal hypnotic efficacy in rats (duration of sleeping time, loss and reappearance of the righting reflex). Format: in vivo. How it is done:
A variety of hypnotics including chloral hydrate, sodium pentobarbital and flurazepam were administered to Wistar rats to compare the efficacy of oral and nasal administration.
Oral Administration Studies: The subjects were fasted for approximately 18 hours; water was available ab libitum. Aqueous solutions of chloral hydrate obtained from Sigma Chemical Co., Ltd. and sodium pentobarbital were separately administered to groups of the subject rats using a constant dose volume of […]. Different dosage levels were obtained by varying the aqueous concentrations of therapeutic drug to identify an effective amount of hypnotic.
The animals were then placed in a constant temperature environment of 32° C. The duration of sleeping time (measured by the loss and reappearance of the righting reflex) was recorded for each animal. The results within each group were then averaged.
Nasal Administration Studies: The methodology of the oral studies was repeated with substitution of nasal administration of aqueous solutions through a fine catheter inserted into the nostril. The therapeutic drug was dosed at a constant volume of 50 μl which would deliver an amount of the hypnotic which would be orally effective.

Data set [1] is described as follows: Comparative oral versus nasal pharmacokinetics of flurazepam in dogs (plasma, GC assay). Format: in vivo, beagle dogs. How it is done:
The efficacy of oral versus nasal administration was examined using the methodology of Example 2.
Oral Administration Studies: Fifteen mg of flurazepam HCl solution was given to each dog with 50 ml of water. […] The plasma samples were stored frozen until GC assay for flurazepam.
Nasal Administration Studies: One hundred and twenty milligrams of flurazepam HCl powder was dissolved in 4 ml of distilled water. […] Air bubbles generated during mixing were eliminated by centrifugation. The pH of the solution was 1.82.
Flurazepam solution was sprayed into both nostrils of the dogs. The dose given to the dogs was 14.5, 12.4, 12.1 and 12.5 mg as flurazepam HCl. Blood sampling times were same as in the oral study. The plasma samples were frozen until GC assay for flurazepam.
Five ml of hexane was then added and the mixture was vortexed together for one min. and centrifuged for 4 minutes. Four ml of the upper organic layer was then pipetted. Fifty μl of hexane/isoamyl alcohol was used for reconstitution.
Flurazepam in plasma was assayed by a Hewlett Packard model 5830A GC-EC. […] The temperatures for column, injector port and detector were 250°, 310° and 310° C., respectively. The flow rate for argon/methane (95:5) gas was 33 ml/min.

[2] abbreviates: nasal spray, 12.1-14.5 mg as HCl, individual dog.

With `CCN(CC)CCN1C(=O)CN=C(c2ccccc2F)c2cc(Cl)ccc21` [flurazepam], the “Hypnotic efficacy by oral administration” value in the data set on Wistar rats is reported as “the rats proved resistant”. The Tmax – broadly, the time at which the peak concentration occurs – is 15 min in data set [1] (dog, plasma, nasal spray, 12.1-14.5 mg as HCl, individual dog, read-out: TMAX NASAL (converted)); 15 min in data set [1] (dog, plasma, nasal spray, 12.1-14.5 mg as HCl, mean of four dogs, read-out: TMAX NASAL (MEAN) (converted)); 26.3 min in data set [1] (dog, plasma, po, 15 mg, oral, 15 mg flurazepam HCl, mean of four dogs, read-out: TMAX PO (MEAN) (converted)). The peak concentration (Cmax) (in general, the peak of the concentration-time curve) in data set [1] (dog, plasma, nasal spray, 12.1-14.5 mg as HCl, mean of four dogs, read-out: CMAX NASAL (MEAN)) was 73.3 ng/mL; in data set [1] (dog, plasma, po, 15 mg, oral, 15 mg flurazepam HCl, mean of four dogs, head marked *, read-out: CMAX PO (MEAN)), 4.97 ng/mL. The half-life in data set [1] (dog, plasma, nasal spray, 12.1-14.5 mg as HCl, mean of four dogs, read-out: T1/2 NASAL (MEAN)) worked out at 168 min. In addition, the “Tmax after nasal administration relative to oral route” value in data set [1] (dogs, nasal vs oral) is reported as “half that of oral route”. In data set [1] (dogs, nasal vs oral, dose-corrected, FIG. 3), the “Plasma levels after nasal administration compared with oral” value is “consistently higher”. The “Mean increase in AUC after nasal administration” value in data set [1] (dogs, nasal vs oral, dose-normalized) came to 51 fold. Also, the “Cmax after oral administration lower than that of nasal route” value in data set [1] (dogs, oral vs nasal) came to 15 times. For the same compound, the “AUC NASAL” value in data set [1] (nasal spray, 12.1-14.5 mg as HCl, dose-normalized, individual dog) was 922.3 ngmin/ml-mg and 384.9 ngmin/ml-mg and 287.4 ngmin/ml-mg and 314.9 ngmin/ml-mg. Further, in data set [1] (nasal spray, 12.1-14.5 mg as HCl, dose-normalized, mean of four dogs), the “AUC NASAL (MEAN)” value was 477.4 ngmin/ml-mg. Moreover, the “CMAX NASAL” value in data set [1] (setting [2]) is 161.5 ng/mL and 41.1 ng/mL and 31.5 ng/mL and 59.0 ng/mL. The “T1/2 NASAL” value in data set [1] (setting [2]) was 214.7 min and 190.8 min and 163.3 min and 102.6 min. In data set [1] (oral, 15 mg flurazepam HCl, dose-normalized, estimated up to last data point, individual dog), the “AUC PO” value was 8.60 ngmin/ml-mg and 19.30 ngmin/ml-mg and 4.81 ngmin/ml-mg and 20.00 ngmin/ml-mg. Moreover, the “AUC PO (MEAN)” value in data set [1] (oral, 15 mg flurazepam HCl, dose-normalized, estimated up to last data point, mean of four dogs) is reported as 13.20 ngmin/ml-mg. Also, the “TMAX PO” value in data set [1] (oral, 15 mg flurazepam HCl, individual dog) is 45.0 min and 30.0 min.
